What was measured:
HS 578T = test: In vitro cytostatic effect (SRB): HS 578T, Breast cancer
SF-539 = test: In vitro cytostatic effect (SRB): SF-539, Cancer of the central nervous system
LOX IMVI = test: In vitro cytostatic effect (SRB): LOX IMVI, Melanoma
MDA-MB-435 = test: In vitro cytostatic effect (SRB): MDA-MB-435, Breast cancer
HCT-116 = test: In vitro cytostatic effect (SRB): HCT-116, Intestinal cancer
A549/ATCC = test: In vitro cytostatic effect (SRB): A549/ATCC, Lung cancer
HCT-15 = test: In vitro cytostatic effect (SRB): HCT-15, Intestinal cancer
HOP-62 = test: In vitro cytostatic effect (SRB): HOP-62, Lung cancer
U251 = test: In vitro cytostatic effect (SRB): U251, Cancer of the central nervous system
HT29 = test: In vitro cytostatic effect (SRB): HT29, Intestinal cancer
IGROV1 = test: In vitro cytostatic effect (SRB): IGROV1, Ovarian cancer
NCI/ADR-RES = test: In vitro cytostatic effect (SRB): NCI/ADR-RES, Breast cancer
UO-31 = test: In vitro cytostatic effect (SRB): UO-31, Kidney cancer
RXF 393 = test: In vitro cytostatic effect (SRB): RXF 393, Kidney cancer
MOLT-4 = test: In vitro cytostatic effect (SRB): MOLT-4, Leukemia
TK-10 = test: In vitro cytostatic effect (SRB): TK-10, Kidney cancer
CAKI-1 = test: In vitro cytostatic effect (SRB): CAKI-1, Kidney cancer
COLO205 = test: In vitro cytostatic effect (SRB): COLO205, Intestinal cancer
NCI-H23 = test: In vitro cytostatic effect (SRB): NCI-H23, Lung cancer
OVCAR-4 = test: In vitro cytostatic effect (SRB): OVCAR-4, Ovarian cancer
ACHN = test: In vitro cytostatic effect (SRB): ACHN, Kidney cancer
OVCAR-8 = test: In vitro cytostatic effect (SRB): OVCAR-8, Ovarian cancer
SW-620 = test: In vitro cytostatic effect (SRB): SW-620, Intestinal cancer
SF-268 = test: In vitro cytostatic effect (SRB): SF-268, Cancer of the central nervous system
HOP-92 = test: In vitro cytostatic effect (SRB): HOP-92, Lung cancer
RPMI-8226 = test: In vitro cytostatic effect (SRB): RPMI-8226, Leukemia
SK-MEL-28 = test: In vitro cytostatic effect (SRB): SK-MEL-28, Melanoma
[1] = read-out: LC50, 48-hour incubation

CCCCCCCCCCCCCCCCCCOC(COP(=O)(O)OCC1OC(n2cc(F)c(=O)[nH]c2=O)CC1O)COP(=O)(O)OCC1OC(n2ccc(N)nc2=O)C(O)C1O (racemic) [NSC 698688-A/1, arabinocytidylyl-(5′→1)-2-O-octadecyl-rac-glycerylyl-(3→5′)-5-fluoro-2′-deoxyuridine]
GI50 (HS 578T; 48-hour incubation): > 100 µM
TGI (HS 578T; 48-hour incubation): >1.00E − 04 mol/l
CC50 (HS 578T; [1]): > 100 µM
GI50 (SF-539; 48-hour incubation): 0.488 µM
TGI (SF-539; 48-hour incubation): 1.03E − 05 mol/l
CC50 (SF-539; [1]): 80.3 µM
GI50 (LOX IMVI; 48-hour incubation): 1.4 µM
TGI (LOX IMVI; 48-hour incubation): >1.00E − 04 mol/l
CC50 (LOX IMVI; [1]): > 100 µM
GI50 (MDA-MB-435; 48-hour incubation): 33.8 µM
TGI (MDA-MB-435; 48-hour incubation): >1.00E − 04 mol/l
CC50 (MDA-MB-435; [1]): > 100 µM
GI50 (HCT-116; 48-hour incubation): 4.9 µM
TGI (HCT-116; 48-hour incubation): >1.00E − 04 mol/l
CC50 (HCT-116; [1]): > 100 µM
GI50 (A549/ATCC; 48-hour incubation): 0.346 µM
TGI (A549/ATCC; 48-hour incubation): >1.00E − 04 mol/l
CC50 (A549/ATCC; [1]): > 100 µM
GI50 (HCT-15; 48-hour incubation): 14.4 µM
TGI (HCT-15; 48-hour incubation): >1.00E − 04 mol/l
CC50 (HCT-15; [1]): > 100 µM
GI50 (HOP-62; 48-hour incubation): 0.699 µM
TGI (HOP-62; 48-hour incubation): >1.00E − 04 mol/l
CC50 (HOP-62; [1]): > 100 µM
GI50 (U251; 48-hour incubation): 3.14 µM
TGI (U251; 48-hour incubation): 2.48E − 05 mol/l
CC50 (U251; [1]): 73.8 µM
GI50 (HT29; 48-hour incubation): 12.5 µM
TGI (HT29; 48-hour incubation): >1.00E − 04 mol/l
CC50 (HT29; [1]): > 100 µM
GI50 (IGROV1; 48-hour incubation): 13.6 µM
TGI (IGROV1; 48-hour incubation): >1.00E − 04 mol/l
CC50 (IGROV1; [1]): > 100 µM
TGI (NCI/ADR-RES; 48-hour incubation): >1.00E − 04 mol/l
CC50 (NCI/ADR-RES; [1]): > 100 µM
GI50 (UO-31; 48-hour incubation): 21.3 µM
TGI (UO-31; 48-hour incubation): >1.00E − 04 mol/l
CC50 (UO-31; [1]): > 100 µM
GI50 (RXF 393; 48-hour incubation): 10.2 µM
TGI (RXF 393; 48-hour incubation): 2.86E − 05 mol/l
CC50 (RXF 393; [1]): 80 µM
GI50 (HL-60(TB); Leukemia, 48-hour incubation): 3.66 µM
TGI (HL-60(TB); Leukemia, 48-hour incubation): >1.00E − 04 mol/l
CC50 (HL-60(TB); read-out: LC50, Leukemia, 48-hour incubation): > 100 µM
GI50 (MOLT-4; 48-hour incubation): 0.467 µM
TGI (MOLT-4; 48-hour incubation): >1.00E − 04 mol/l
CC50 (MOLT-4; [1]): > 100 µM
GI50 (TK-10; 48-hour incubation): 22.9 µM
TGI (TK-10; 48-hour incubation): >1.00E − 04 mol/l
CC50 (TK-10; [1]): > 100 µM
GI50 (CAKI-1; 48-hour incubation): 10.4 µM
TGI (CAKI-1; 48-hour incubation): >1.00E − 04 mol/l
CC50 (CAKI-1; [1]): > 100 µM
GI50 (COLO205; 48-hour incubation): 10.5 µM
TGI (COLO205; 48-hour incubation): 3.88E − 05 mol/l
CC50 (COLO205; [1]): > 100 µM
GI50 (NCI-H23; 48-hour incubation): 7.23 µM
TGI (NCI-H23; 48-hour incubation): >1.00E − 04 mol/l
CC50 (NCI-H23; [1]): > 100 µM
GI50 (OVCAR-4; 48-hour incubation): 58.5 µM
TGI (OVCAR-4; 48-hour incubation): >1.00E − 04 mol/l
CC50 (OVCAR-4; [1]): > 100 µM
GI50 (ACHN; 48-hour incubation): 0.466 µM
TGI (ACHN; 48-hour incubation): >1.00E − 04 mol/l
CC50 (ACHN; [1]): > 100 µM
GI50 (OVCAR-8; 48-hour incubation): 0.968 µM
TGI (OVCAR-8; 48-hour incubation): >1.00E − 04 mol/l
CC50 (OVCAR-8; [1]): > 100 µM
GI50 (SW-620; 48-hour incubation): 62.8 µM
TGI (SW-620; 48-hour incubation): >1.00E − 04 mol/l
CC50 (SW-620; [1]): > 100 µM
GI50 (SF-268; 48-hour incubation): 0.745 µM
TGI (SF-268; 48-hour incubation): >1.00E − 04 mol/l
CC50 (SF-268; [1]): > 100 µM
GI50 (HOP-92; 48-hour incubation): 0.0802 µM
TGI (HOP-92; 48-hour incubation): 8.99E − 05 mol/l
CC50 (HOP-92; [1]): > 100 µM
GI50 (RPMI-8226; 48-hour incubation): 1.65 µM
TGI (RPMI-8226; 48-hour incubation): >1.00E − 04 mol/l
CC50 (RPMI-8226; [1]): > 100 µM
GI50 (SK-MEL-28; 48-hour incubation): 57.8 µM
TGI (SK-MEL-28; 48-hour incubation): >1.00E − 04 mol/l
CC50 (SK-MEL-28; [1]): > 100 µM

Source: patent US6787525B1, “Glyceryl nucleotides, method for the production thereof and their use” (priority 1998, dated 2004)
